Legend:
Type in all cases: cell-based
[1] = test system: KRAS G12D mutant human metastatic pancreatic cancer cell AsPc-1; experiment: 3D cell proliferation inhibition assay, AsPc-1; settings: ASPC1, 168 h, 3D culture, 7 days, CTG
Procedure, shortened: (§1)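 Cells were seeded in low-adsorption 96-well plates at 5×10^2 cells/well (MKN1 at 1×10^3) with compounds at final 10000-0.026 nM, 0.2% DMSO, and grown 7 days at 37° C. CTG luminescence gave inhibition relative to DMSO and medium-only controls, and IC50 came from a log-concentration curve fit.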

[2] = test system: KRAS WT human gastric cancer cell MKN1; experiment: 3D cell proliferation inhibition assay, MKN1; settings: MKN-1, 168 h, 3D culture, 7 days, CTG
Procedure, shortened: as §1

[3] = test system: KRAS G12V mutant human colorectal cancer cell SW620; experiment: 3D cell proliferation inhibition assay, SW620; settings: SW-620, 168 h, 3D culture, 7 days, CTG
Procedure, shortened: as §1

[4] = test system: KRAS G12C mutant human non-small cell lung cancer cell NCI-H358; experiment: 3D cell proliferation inhibition assay, NCI-H358; settings: NCI-H358, 168 h, 3D culture, 7 days, CTG
Procedure, shortened: as §1

[5] = molecular target: T1, KRAS WT (expanded) protein in MKN1 cells (Homo sapiens, UniProt P01116); experiment: KRAS degradation assay (Western Blot) in MKN1 cells; settings: for DC50: 24 h; for Dmax: MKN-1, 24 h
T1 construct: endogenous in cells; host or cells: MKN1 (MKN-1)
Excerpt: (§2) Test Example 5: KRAS G12C, KRAS G12D, KRAS G12V, KRAS G13D, and KRAS WT (Expanded) Degradation Assays
(§3) The degradation effect of the compounds on KRAS was investigated on KRAS G12C mutant human non-small cell lung cancer cell NCI-H358, KRAS G12D mutant human metastatic pancreatic cancer cell AsPc-1, KRAS G12D mutant human lung cancer cell A427, KRAS G12V mutant human colorectal cancer cell SW620, KRAS G12V mutant human lung cancer cell SW900, KRAS G13D mutant human colorectal cancer epithelial cell DLD-1, and KRAS WT human gastric cancer cell MKN-1. The specific procedures were as follows: 0.95 mL of cells were seeded into each well of a 24-well cell culture plate to achieve a cell density of 5×10^5 cells/well; and the cell plate was incubated in an incubator at 37° C. with 5% CO2 overnight. Then 50 μL of the compound solution after dilution was added to each of the wells with the corresponding cells, so that the final concentration of the compound was in a range of 0.03-3000 nM. The final concentration of DMSO was 0.25%. After the compounds were added, the cell plate was incubated in an incubator at 37° C. with 5% CO2 for 24 h. The culture medium in the 24-well cell culture plate was then removed, and the plate was washed twice with 1×PBS (KeyGEN). 120 μL of RIPA (strong) lysis buffer (Beyotime) (supplemented with 1 mM phenylmethylsulfonyl fluoride, a protease inhibitor mixture (Beyotime), and a protease phosphatase inhibitor mixture (Beyotime)) was added to lyse adherent SW900 cells at the bottom of the cell culture plate. After the plate was left to stand on ice for 30 min, the protein lysate in each well was transferred to a 1.5 mL centrifuge tube and centrifuged at 15000 g for 20 min at 4° C. The cell lysate supernatants after centrifugation were cryopreserved in a refrigerator at −80° C. for later use.
(§4) After the samples of the cell lysate supernatants that had been prepared were thawed from the refrigerator at −80° C., the total protein concentrations of the cell lysates were determined using a BCA protein quantification kit (Tiangen). The total protein concentrations of the samples were then adjusted to 0.5 μg/μL with PBS and 5×SDS-PAGE protein loading buffer (Beyotime), and the samples were incubated in a water bath at 100° C. for 15 min. The samples were then incubated in an ice bath for 5 min and centrifuged at 14000 g for 1 min at 4° C., and the supernatants were mixed well as loading samples for the Western Blot assay. The samples were loaded into wells of a 10% precast gel (KeyGEN) with a loading volume of 10 μL (total protein: 5 μg), a sufficient Tris-MOPS-SDS running buffer (Adamas) was added, and then electrophoresis was performed at a constant voltage of 120 V for 55 min. After the electrophoresis, the proteins on the gel were transferred to PVDF membranes at a constant current of 250 mA for 55 min. After the membrane transfer, the PVDF membranes were incubated in 1× Quick Block blocking buffer (Beyotime)at room temperature for 30 min. After the blocking, the PVDF membranes were separately incubated at 4° C. overnight with the KRAS antibody (Abcam) diluted in a ratio of 1:1000 and the β-actin antibody (Abcam) diluted in a ratio of 1:2000 in 5% BSA as the diluent, and then washed with 1×TBST buffer (2.4 g of Tris, 8.8 g of NaCl, 1.5 mL of Tween 20, with pH adjusted to 7.4, with the volume brought to 1 L) 3 times for 10 min/time. The membranes were incubated with a secondary antibody (Abcam) diluted in 5% BSA at room temperature for 2 h, and then washed with 1×TBST buffer 3 times for 10 min/time. Finally, the membranes were incubated with Clarity Western ECL Substrate (BIO-RAD) for 5 min for luminescence and color development, and a ChemiScope 6200 Touch chemiluminescence imaging system (Clinx) was used for color development and protein mapping. Gray value analysis of the protein maps was performed using the chemiluminescence analysis software (Clinx). […]

[6] = test system: KRAS G13D mutant human colorectal cancer epithelial cell DLD-1; experiment: 3D cell proliferation inhibition assay, DLD-1; settings: DLD-1, 168 h, 3D culture, 7 days, CTG
Procedure, shortened: as §1

[7] = molecular target: T2, KRAS G12V protein in SW620 cells (Homo sapiens, UniProt P01116, G12V); experiment: KRAS degradation assay (Western Blot) in SW620 cells; settings: for DC50: 24 h; for Dmax: SW-620, 24 h
T2 construct: endogenous in cells; host or cells: SW620
Procedure, shortened: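 Compounds were added at final concentrations of 0.03–3000 nM (0.25% DMSO) to overnight-plated cells and left for 24 h. Lysates, equalised by BCA, were immunoblotted for KRAS and β-actin, and DC50 and Dmax were derived from normalised band intensities relative to control.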

[8] = molecular target: T3, KRAS G13D protein in DLD-1 cells (Homo sapiens, UniProt P01116, G13D); experiment: KRAS degradation assay (Western Blot) in DLD-1 cells; settings: 24 h
T3 construct: endogenous in cells; host or cells: DLD-1
Excerpt: as §2, §3, §4

[9] = molecular target: T4, KRAS G12C protein in NCI-H358 cells (Homo sapiens, UniProt P01116, G12C); experiment: KRAS degradation assay (Western Blot) in NCI-H358 cells; settings: 24 h
T4 construct: endogenous in cells; host or cells: NCI-H358
Excerpt: as §2, §3, §4

[10] = molecular target: T5, KRAS G12D protein in AsPc-1 cells (Homo sapiens, UniProt P01116, G12D); experiment: KRAS degradation assay (Western Blot) in AsPc-1 cells; settings: for DC50: 24 h; for Dmax: ASPC1, 24 h
T5 construct: endogenous in cells; host or cells: AsPc-1
Excerpt: as §2, §3, §4

T2 sequence (P01116 1-188 isoform P01116-2 G12V): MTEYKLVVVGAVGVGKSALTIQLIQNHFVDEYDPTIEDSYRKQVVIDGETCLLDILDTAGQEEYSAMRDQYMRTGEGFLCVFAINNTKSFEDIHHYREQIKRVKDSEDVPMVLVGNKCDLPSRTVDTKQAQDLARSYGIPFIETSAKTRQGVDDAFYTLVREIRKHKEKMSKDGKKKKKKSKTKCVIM
T3 sequence (P01116 1-188 isoform P01116-2 G13D): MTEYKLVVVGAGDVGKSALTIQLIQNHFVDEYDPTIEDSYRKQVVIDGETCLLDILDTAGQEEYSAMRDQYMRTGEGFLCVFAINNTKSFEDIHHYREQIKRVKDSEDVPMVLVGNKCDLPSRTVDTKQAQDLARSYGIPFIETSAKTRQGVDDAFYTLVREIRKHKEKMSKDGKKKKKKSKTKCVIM
T5 sequence (P01116 1-188 isoform P01116-2 G12D): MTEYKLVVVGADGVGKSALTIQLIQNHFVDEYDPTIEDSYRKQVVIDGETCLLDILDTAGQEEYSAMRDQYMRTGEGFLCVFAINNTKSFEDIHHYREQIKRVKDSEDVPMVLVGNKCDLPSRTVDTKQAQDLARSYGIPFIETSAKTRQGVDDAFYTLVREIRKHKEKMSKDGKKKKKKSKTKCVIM
T1 sequence (P01116 1-188 isoform P01116-2): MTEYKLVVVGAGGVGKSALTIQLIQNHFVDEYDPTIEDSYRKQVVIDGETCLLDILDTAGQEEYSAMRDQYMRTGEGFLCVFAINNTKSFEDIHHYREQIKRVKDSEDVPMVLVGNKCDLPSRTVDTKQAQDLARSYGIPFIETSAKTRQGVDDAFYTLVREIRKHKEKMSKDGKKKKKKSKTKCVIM
T4 sequence (P01116 1-188 isoform P01116-2 G12C): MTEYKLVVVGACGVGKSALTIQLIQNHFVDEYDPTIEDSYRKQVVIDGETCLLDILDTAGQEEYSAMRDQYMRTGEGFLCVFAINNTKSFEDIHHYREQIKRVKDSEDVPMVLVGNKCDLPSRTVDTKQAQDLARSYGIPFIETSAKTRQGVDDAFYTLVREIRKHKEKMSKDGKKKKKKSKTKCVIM

Row | Structure (SMILES) | IC50 [1] | IC50 [2] | IC50 [3] | IC50 [4] | DC50 [5] | Dmax [5] | IC50 [6] | DC50 [7] | Dmax [7] | DC50 [8] | Dmax [8] | DC50 [9] | Dmax [9] | DC50 [10] | Dmax [10]
1 | C#Cc1c(F)ccc2cc(O)cc(-c3ncc4c(N5CCC[C@@](C)(O)C5)nc(OCC5(CN6CCN(CC7CCC8(CC7)CCN(C(=O)c7ccc(CC)c(N9CCC(=O)NC9=O)c7)CC8)CC6)CC5)nc4c3F)c12 [Example 92, (R)-1-(2-ethyl-5-(9-((4-((1-(((7-(8-ethynyl-7-fluoro-3-hydroxynaphthalen-1-yl)-8-fluoro-4-(3-hydroxy-3-methylpiperidin-1-yl)pyrido[4,3-d]pyrimidin-2-yl)oxy)methyl)cyclopropyl)methyl)piperazin-1-yl)methyl)-3-azaspiro[5.5]undecane-3-carbonyl)phenyl)dihydropyrimidine-2,4(1H,3H)-dione] | 6.75 nM | 447 nM | 1.31 nM | 19.3 nM | 0.42 nM | 99% | 2.26 nM | 1.34 nM | 100% |  |  |  |  |  | 
2 | C#Cc1c(F)ccc2cc(O)cc(-c3ncc4c(N5CCC[C@@](C)(O)C5)nc(OC[C@H](C)CN5CCN(CC6CCC7(CC6)CCN(C(=O)c6ccc(Cl)c(N8CCC(=O)NC8=O)c6)CC7)CC5)nc4c3F)c12 [Example 48, 1-(2-chloro-5-(9-((4-((R)-3-((7-(8-ethynyl-7-fluoro-3-hydroxynaphthalen-1-yl)-8-fluoro-4-((R)-3-hydroxy-3-methylpiperidin-1-yl)pyrido[4,3-d]pyrimidin-2-yl)oxy)-2-methylpropyl)piperazin-1-yl)methyl)-3-azaspiro[5.5]undecane-3-carbonyl)phenyl)dihydropyrimidine-2,4(1H,3H)-dione] | 23.2 nM | 21.2 nM | 5.17 nM | 85.5 nM | 2.33 nM | 100% | 2.61 nM | 1.02 nM | 100% | 1.34 nM | 100% | 17.2 nM | 100% |  | 
3 | C#Cc1c(F)ccc2cc(O)cc(-c3ncc4c(N(C)[C@H]5C[C@@H]5F)nc(OC[C@H](C)CN5CCN(CC6CCC7(CC6)CCN(C(=O)c6ccc(OC)c(N8CCC(=O)NC8=O)c6)CC7)CC5)nc4c3F)c12 [Example 50, 1-(5-(9-((4-((R)-3-((7-(8-ethynyl-7-fluoro-3-hydroxynaphthalen-1-yl)-8-fluoro-4-(((1S,2S)-2-fluorocyclopropyl)(methyl)amino)pyrido[4,3-d]pyrimidin-2-yl)oxy)-2-methylpropyl)piperazin-1-yl)methyl)-3-azaspiro[5.5]undecane-3-carbonyl)-2-methoxyphenyl)dihydropyrimidine-2,4(1H,3H)-dione] | 157 nM | 23.7 nM | 3.73 nM | 46.7 nM |  |  | 90.9 nM | 3.22 nM | 99.4% | 3.98 nM | 98% | 21.6 nM | 96.3% | 167 nM | 77.1%
4 | [2H]C([2H])([2H])c1ccc(C(=O)N2CCC3(CCC(CN4CCN(C[C@@H](C)COc5nc(N6CCC[C@@](C)(O)C6)c6cnc(-c7cc(O)cc8ccc(F)c(C#C)c78)c(F)c6n5)CC4)CC3)CC2)cc1N1CCC(=O)NC1=O [Example 132, 1-(5-(9-((4-((R)-3-((7-(8-ethynyl-7-fluoro-3-hydroxynaphthalen-1-yl)-8-fluoro-4-((R)-3-hydroxy-3-methylpiperidin-1-yl)pyrido[4,3-d]pyrimidin-2-yl)oxy)-2-methylpropyl)piperazin-1-yl)methyl)-3-azaspiro[5.5]undecane-3-carbonyl)-2-(methyl-d3)phenyl)dihydropyrimidine-2,4(1H,3H)-dione] | 9.75 nM | 4.31 nM | 0.43 nM | 6.2 nM |  |  | 7.7 nM | 2.42 nM | 100% | 5.6 nM | 100% | 1.37 nM | 100% | 25.2 nM | 95.3%
5 | C#Cc1c(F)ccc2cc(O)cc(-c3ncc4c(N5CCC[C@@](C)(O)C5)nc(OC[C@H](C)CN5CCN(CC6CCC7(CC6)CCN(C(=O)c6ccc(OC)c(N8CCC(=O)NC8=O)c6)CC7)CC5)nc4c3F)c12 [Example 46, 1-(5-(9-((4-((R)-3-((7-(8-ethynyl-7-fluoro-3-hydroxynaphthalen-1-yl)-8-fluoro-4-((R)-3-hydroxy-3-methylpiperidin-1-yl)pyrido[4,3-d]pyrimidin-2-yl)oxy)-2-methylpropyl)piperazin-1-yl)methyl)-3-azaspiro[5.5]undecane-3-carbonyl)-2-methoxyphenyl)dihydropyrimidine-2,4(1H,3H)-dione] | 9.03 nM | 2.01 nM | 2.81 nM | 18.2 nM | 1.26 nM | 100% | 5.49 nM | 0.87 nM | 100% | 2.36 nM | 100% | 3.14 nM | 86.7% |  | 
6 | [2H]C([2H])([2H])c1ccc(C(=O)N2CCC3(CCC(CN4CCN(CC5(COc6nc(N7CCC[C@@](C)(O)C7)c7cnc(-c8cc(O)cc9ccc(F)c(C#C)c89)c(F)c7n6)CC5)CC4)CC3)CC2)cc1N1CCC(=O)NC1=O [Example 111, (R)-1-(5-(9-((4-((1-(((7-(8-ethynyl-7-fluoro-3-hydroxynaphthalen-1-yl)-8-fluoro-4-(3-hydroxy-3-methylpiperidin-1-yl)pyrido[4,3-d]pyrimidin-2-yl)oxy)methyl)cyclopropyl)methyl)piperazin-1-yl)methyl)-3-azaspiro[5.5]undecane-3-carbonyl)-2-(methyl-d3)phenyl)dihydropyrimidine-2,4(1H,3H)-dione] | 4.68 nM | 2.15 nM | 1.12 nM | 2.5 nM | 0.69 nM | 99.9% | 5.88 nM | 1.65 nM | 100% | 6.78 nM | 99.3% |  |  |  | 

Reference: patent US20260167622A1, “PAN-KRAS DEGRADING AGENT, AND PREPARATION METHOD THEREFOR AND USE THEREOF” (LEADINGTAC PHARMACEUTICAL (SHAOXING) CO., LTD., priority 2022, published 2026)
